Data as given in the NIST ThermoML archive (doi:10.1016/j.jct.2018.09.029).
Numbers after ± are expanded uncertainties.

Assay: Boiling temperature at pressure P
Conditions: 82.6 kPa; Liquid; Ebulliometric method (Recirculating still)

Boiling temperature at pressure P: 94.41 ± 0.63 °C
SMILES: O [water]
